# Source: ChEMBL document CHEMBL4190340, “Studies on the cytotoxicity and anticancer performance of heterocyclic hypervalent organobismuth(III) compounds” (Eur J Med Chem, 2017)
# Activity calls are given as the source filed them. No cut-off for these calls is given here.
# Legend:
# A549 [1] = test: Induction of apoptosis in human A549 cells assessed as membrane blebbing at 10 uM after 48 hrs by Annexin V-FITC/propidium iodide staining based laser scanning confocal microscopic analysis; format: functional, cell-based
# A549 [2] = test: Induction of apoptosis in human A549 cells assessed as connection disappearance at 10 uM after 48 hrs by Annexin V-FITC/propidium iodide staining based laser scanning confocal microscopic analysis; format: functional, cell-based
# A549 [3] = test: Induction of apoptosis in human A549 cells assessed as early apoptotic cells at 10 uM after 48 hrs by Annexin V-FITC/propidium iodide staining based flow cytometric analysis (reference value: 2.89%); format: functional, cell-based
# A549 [4] = test: Induction of apoptosis in human A549 cells assessed as early apoptotic cells by Annexin V-FITC/propidium iodide staining based flow cytometric analysis (reference value: 1.43%); format: functional, cell-based
# SGC-7901 = test: Cytotoxicity against human SGC7901 cells assessed as reduction in cell viability after 48 hrs by CCK8 assay; format: functional, cell-based
# A549 [5] = test: Upregulation of Bax protein level in human A549 cells at 3 to 10 uM after 24 hrs by Western blot analysis; format: functional, cell-based
# A549 [6] = test: Induction of apoptosis in human A549 cells assessed as necrotic cells at 10 uM after 48 hrs by Annexin V-FITC/propidium iodide staining based flow cytometric analysis (reference value: 1.21%); format: functional, cell-based
# Homo sapiens = organism: Homo sapiens; test: Cytotoxicity against human […] cells assessed as reduction in cell viability after 48 hrs by CCK8 assay; format: functional, cell-based
# A549 [7] = test: Downregulation of Bcl-2 mRNA expression in human A549 cells at 10 uM after 24 hrs by qRT-PCR analysis; format: functional, cell-based
# A549 [8] = test: Induction of apoptosis in human A549 cells assessed as late apoptotic cells at 10 uM after 48 hrs by Annexin V-FITC/propidium iodide staining based flow cytometric analysis (reference value: 1.73%); format: functional, cell-based
# A549 [9] = test: Induction of apoptosis in human A549 cells assessed as early apoptotic cells in presence of z-VAD-fmk by Annexin V-FITC/propidium iodide staining based flow cytometric analysis (reference value: 1.43%); format: functional, cell-based
# SW480 = test: Cytotoxicity against human SW480 cells assessed as reduction in cell viability after 48 hrs by CCK8 assay; format: functional, cell-based
# A549 [10] = test: Induction of apoptosis in human A549 cells assessed as cell shrinkage at 10 uM after 48 hrs by Annexin V-FITC/propidium iodide staining based laser scanning confocal microscopic analysis; format: functional
# A549 [11] = test: Induction of apoptosis in human A549 cells assessed as necrotic cells at 3 uM after 48 hrs by Annexin V-FITC/propidium iodide staining based flow cytometric analysis (reference value: 1.21%); format: functional, cell-based
# A549 [12] = test: Induction of apoptosis in human A549 cells assessed as nuclear enrichment at 10 uM after 48 hrs by Annexin V-FITC/propidium iodide staining based laser scanning confocal microscopic analysis; format: functional, cell-based
# A549 [13] = test: Induction of apoptosis in human A549 cells assessed as late apoptotic cells at 3 uM after 48 hrs by Annexin V-FITC/propidium iodide staining based flow cytometric analysis (reference value: 1.73%); format: functional, cell-based
# A549 [14] = test: Induction of apoptosis in human A549 cells assessed as necrotic cells by Annexin V-FITC/propidium iodide staining based flow cytometric analysis (reference value: 0.96%); format: functional, cell-based
# A549 [15] = test: Induction of apoptosis in human A549 cells assessed as necrotic cells in presence of z-VAD-fmk by Annexin V-FITC/propidium iodide staining based flow cytometric analysis (reference value: 0.96%); format: functional, cell-based
# A549 [16] = test: Induction of apoptosis in human A549 cells assessed as early apoptotic cells at 3 uM after 48 hrs by Annexin V-FITC/propidium iodide staining based flow cytometric analysis (reference value: 2.89%); format: functional, cell-based
# A549 [17] = test: Upregulation of Bax mRNA expression in human A549 cells at 10 uM after 24 hrs by qRT-PCR analysis; format: functional, cell-based
# A549 [18] = test: Induction of apoptosis in human A549 cells assessed as late apoptotic cells by Annexin V-FITC/propidium iodide staining based flow cytometric analysis (reference value: 1.66%); format: functional, cell-based
# A549 [19] = test: Downregulation of Bcl-2 protein level in human A549 cells at 3 to 10 uM after 24 hrs by Western blot analysis; format: functional, cell-based
# A549 [20] = test: Induction of apoptosis in human A549 cells assessed as reduction in pro caspase 3 level at 10 uM after 24 hrs by Western blot analysis; format: functional, cell-based
# A549 [21] = test: Cytotoxicity against human A549 cells assessed as reduction in cell viability after 48 hrs by CCK8 assay; format: functional, cell-based
# A549 [22] = test: Induction of apoptosis in human A549 cells after 48 hrs by Annexin V-FITC/propidium iodide staining based flow cytometric analysis; format: functional, cell-based
# A549 [23] = test: Induction of apoptosis in human A549 cells assessed as late apoptotic cells in presence of z-VAD-fmk by Annexin V-FITC/propidium iodide staining based flow cytometric analysis (reference value: 1.66%); format: functional, cell-based
substance,measurement,setting,value
"5H-dibenzo[c,f][1,5]oxabismocin-12(7H)-yl nitrate",Activity,A549 [1],Active
same,Activity,A549 [2],Active
same,Activity,A549 [3],17.4%
same,Activity,A549 [4],18.6%
same,Activity,SGC-7901,Dose-dependent effect
same,Activity,A549 [5],Active
same,Activity,A549 [6],6.68%
same,Activity,Homo sapiens,Dose-dependent effect
same,Activity,A549 [7],Active
same,Activity,A549 [8],4.24%
same,Activity,A549 [9],3.19%
same,Activity,SW480,Dose-dependent effect
same,Activity,A549 [10],Active
same,Activity,A549 [11],0.617%
same,Activity,A549 [12],Active
same,Activity,A549 [13],4.16%
same,Activity,A549 [14],2.24%
same,Activity,A549 [15],2.66%
same,Activity,A549 [16],5.18%
same,Activity,A549 [17],Active
same,Activity,A549 [18],10.2%
same,Activity,A549 [19],Active
same,Activity,A549 [20],Active
same,Activity,A549 [21],Dose-dependent effect
same,Activity,A549 [22],Dose-dependent effect
same,Activity,A549 [23],5.26%
